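In this assay, cells in 96-well plates receive the compound at five concentrations for 48 hours. Endpoints are linearly interpolated between the surrounding concentrations. Abbreviation: GI50, concentration required for 50% inhibition of growth. TGI: total growth inhibition.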
What was measured:
Assay in all cases: growth of human tumour cells (NCI), 48 h
NCI-H522 lung = tested on: NCI-H522 lung
MCF7 breast = tested on: MCF7 breast
MALME-3M melanoma = tested on: MALME-3M melanoma
NCI-H23 lung = tested on: NCI-H23 lung
SNB-75 CNS = tested on: SNB-75 CNS
M14 melanoma = tested on: M14 melanoma
NCI-H460 lung = tested on: NCI-H460 lung
RXF 393 renal = tested on: RXF 393 renal
RPMI-8226 leukemia = tested on: RPMI-8226 leukemia
SF-268 CNS = tested on: SF-268 CNS
OVCAR-8 ovarian = tested on: OVCAR-8 ovarian
SK-OV-3 ovarian = tested on: SK-OV-3 ovarian
HS 578T breast = tested on: HS 578T breast
SNB-19 CNS = tested on: SNB-19 CNS
HOP-92 NSCLC = tested on: HOP-92 NSCLC
SF-295 CNS = tested on: SF-295 CNS
EKVX NSCLC = tested on: EKVX NSCLC
DU-145 prostate = tested on: DU-145 prostate
HCT-15 colon = tested on: HCT-15 colon
UACC-257 melanoma = tested on: UACC-257 melanoma
BT-549 breast = tested on: BT-549 breast
OVCAR-5 ovarian = tested on: OVCAR-5 ovarian
U251 CNS = tested on: U251 CNS
LOX IMVI melanoma = tested on: LOX IMVI melanoma
UO-31 renal = tested on: UO-31 renal
NCI-H226 lung = tested on: NCI-H226 lung
HL-60(TB) leukemia = tested on: HL-60(TB) leukemia
SN12C renal = tested on: SN12C renal
OVCAR-3 ovarian = tested on: OVCAR-3 ovarian

Work on `O=C(N/N=C/c1ccc(Cl)o1)c1[nH]c2ccc(Br)cc2c1-c1ccccc1` yielded a GI50 (NCI-H522 lung) of 137 nM, a TGI (NCI-H522 lung) of 463 nM and a GI50 (MCF7 breast) of 292 nM. The TGI (MCF7 breast) was > 100000 nM, the GI50 (MALME-3M melanoma) was 462 nM and the TGI (MALME-3M melanoma) was 49900 nM. For the same molecule, the GI50 (NCI-H23 lung) was 417 nM, the TGI (NCI-H23 lung) was 27300 nM and the GI50 (SNB-75 CNS) was 309 nM. The TGI (SNB-75 CNS) was 18300 nM, the GI50 (M14 melanoma) was 278 nM and the TGI (M14 melanoma) was 23100 nM. The GI50 (NCI-H460 lung) was 328 nM, the TGI (NCI-H460 lung) was 10600 nM and the GI50 (RXF 393 renal) was 397 nM. For the same molecule, the TGI (RXF 393 renal) was 26100 nM, the GI50 (RPMI-8226 leukemia) was 407 nM and the TGI (RPMI-8226 leukemia) was > 40500 nM. For the same molecule, the GI50 (SF-268 CNS) was 575 nM, the TGI (SF-268 CNS) was > 48100 nM and the GI50 (OVCAR-8 ovarian) was 298 nM. For the same molecule, the TGI (OVCAR-8 ovarian) was 3180 nM, the GI50 (SK-OV-3 ovarian) was 567 nM and the TGI (SK-OV-3 ovarian) was > 100000 nM. It also gave a GI50 (HS 578T breast) of 264 nM, a TGI (HS 578T breast) of 16600 nM and a GI50 (SNB-19 CNS) of 442 nM. The TGI (SNB-19 CNS) was > 100000 nM, the GI50 (HOP-92 NSCLC) was 4200 nM and the TGI (HOP-92 NSCLC) was 43200 nM. For the same molecule, the GI50 (SF-295 CNS) was 331 nM, the TGI (SF-295 CNS) was > 49700 nM and the GI50 (EKVX NSCLC) was 585 nM. The TGI (EKVX NSCLC) was > 100000 nM, the GI50 (DU-145 prostate) was 382 nM and the TGI (DU-145 prostate) was 13300 nM. The GI50 (HCT-15 colon) was 343 nM, the TGI (HCT-15 colon) was 33600 nM and the GI50 (UACC-257 melanoma) was 3400 nM. For the same molecule, the TGI (UACC-257 melanoma) was > 100000 nM, the GI50 (BT-549 breast) was 295 nM and the TGI (BT-549 breast) was 1750 nM. The GI50 (OVCAR-5 ovarian) was 388 nM, the TGI (OVCAR-5 ovarian) was 22100 nM and the GI50 (U251 CNS) was 340 nM. It also gave a TGI (U251 CNS) of 28100 nM, a GI50 (LOX IMVI melanoma) of 276 nM and a TGI (LOX IMVI melanoma) of 14900 nM. The GI50 (UO-31 renal) was 627 nM, the TGI (UO-31 renal) was 25900 nM and the GI50 (NCI-H226 lung) was 619 nM. The TGI (NCI-H226 lung) was 29600 nM, the GI50 (HL-60(TB) leukemia) was 235 nM and the TGI (HL-60(TB) leukemia) was 713 nM. It also gave a GI50 (SN12C renal) of 377 nM, a TGI (SN12C renal) of 14200 nM and a GI50 (OVCAR-3 ovarian) of 367 nM. The TGI (OVCAR-3 ovarian) was 14700 nM.

— PubChem BioAssay (NCI)
